Results reported in US12623942B2, “Method for extracting salts and temperature- regenerated extracting composition” (ADIONICS, priority 2016, dated 2026).

What was measured:
[1] = Regeneration (back-extraction) of the extracting composition charged with CaCl2
Method: Two samples of the extracting composition of example 4 with the highest content of CaCl2 at 20° C. were contacted with a saline water at 1 Mol/L of CaCl2 at room temperature to increase the salt charging level of the dissolved CEM2 cation extracting molecules, and thus to get close to their salt saturation level (0.1 Mol/L). Then, these two samples were contacted with an iso-volume of distilled water at 20° C. and stirred. One of the two diphasic samples was then heated up to 80° C. and kept under stirring. The initial salt charging level being assessed at 80 mMol/L, it appears that the latter drops to 15.27 mMol/L from the first regeneration step at 80° C. whereas, during regeneration at 20° C., the salt residual concentration is 29.3 mMol/L. FIG. 4 illustrates the results obtained throughout several serial steps of contacting the hydrophobic organic liquid phase charged with salts with an iso-volume of distilled water. […] In use, this advantage seems to be even more significant when a resin with a high CEM content, and thus a high salt content, is implemented.

[2] = Selective extraction from a mixture of NaCl, CaCl2, SrCl2 and BaCl2; settings: 0.1 Mol/L CEM2 in ASM2/ASM1 60/40 by volume, RT
Method: A brine containing a mixture of NaCl, CaCl2, SrCl2 and BaCl2 is made as described above. The dissolved salt concentrations are indicated in table VIII in mMol/L. The extraction was carried out a second time with changed divalent salt concentrations.
The extracting composition consists of 0.1 Mol/L of CEM2 and of a mixture of two ASMs. This mixture is composed of ASM2 which is usually referred to as [3,5-Bis(Trifluoromethyl)benzyl Alcohol] (35TFMBnOH) of CAS #: 32707-89-4, up to 60% by volume, and of ASM1, referred to as [3-(Trifluoromethyl)benzyl Alcohol](3TFMBnOH), of molecular formula C8H7F3O of MW=176.14 g/Mol and of CAS #: 349-75-7, up to 40% by volume, both serving as a fluidizing agent and as an ASM given its liquid form.
The extraction is carried out as described in example 1 and at room temperature.

## CCN(CC)C(=O)COc1c2cc(C(C)(C)C)cc1Cc1cc(C(C)(C)C)cc(c1OCC(=O)N(CC)CC)Cc1cc(C(C)(C)C)cc(c1OCC(=O)N(CC)CC)Cc1cc(C(C)(C)C)cc(c1OCC(=O)N(CC)CC)Cc1cc(C(C)(C)C)cc(c1OCC(=O)N(CC)CC)Cc1cc(C(C)(C)C)cc(c1OCC(=O)N(CC)CC)C2 [CEM2, 4-tert-butyl-Calix[6]arene hexakis(N,N-diethylacetamide)]
[1]; 0.1 Mol/L CEM2 + 1 Mol/L ASM9 in 1,2-dichlorobenzene, initial charge 80 mMol/L CaCl2, iso-volume distilled water, 20° C.
  Salt residual concentration after regeneration: 29.3 mmol/L
[1]; 0.1 Mol/L CEM2 + 1 Mol/L ASM9 in 1,2-dichlorobenzene, initial charge 80 mMol/L CaCl2, iso-volume distilled water, 80° C.
  Salt charging level after the first regeneration step: 15.27 mmol/L
[1]; 80° C. versus 20° C., same CaCl2 overall back-extraction rate
  Reduction in the number of necessary regeneration steps, hot regeneration: 2 fold
[2]; Table IX, initial 9.17
  Final Concentration Sr^2+: 0 mmol/L
[2]; Table IX, initial 9.17 mMol/L
  % extraction Sr^2+: 100%
[2]; Table IX, initial 9.25
  Final Concentration Ca^2+: 0 mmol/L
[2]; Table IX, initial 9.25 mMol/L
  % extraction Ca^2+: 100%
[2]; Table IX, initial 9.32
  Final Concentration Ba^2+: 0 mmol/L
[2]; Table IX, initial 9.32 mMol/L
  % extraction Ba^2+: 100%
[2]; Table IX, initial 196.04
  Final Concentration Na^+: 195.9835 mmol/L
[2]; Table IX, initial 196.04 mMol/L
  % extraction Na^+: 0%
[2]; Table IX, initial 245.4
  ANIONS Cl− Final Concentration: 203.16 mmol/L
[2]; Table VIII, initial 4.29
  Final Concentration Sr^2+: 0 mmol/L
[2]; Table VIII, initial 4.29 mMol/L
  % extraction Sr^2+: 100%
[2]; Table VIII, initial 4.69
  Final Concentration Ba^2+: 0 mmol/L
[2]; Table VIII, initial 4.69 mMol/L
  % extraction Ba^2+: 100%
[2]; Table VIII, initial 29.13
  Final Concentration Ca^2+: 0.4916 mmol/L
[2]; Table VIII, initial 29.13 mMol/L
  % extraction Ca^2+: 98%
[2]; Table VIII, initial 193.52
  Final Concentration Na^+: 199.4775 mmol/L
[2]; Table VIII, initial 193.52 mMol/L
  % extraction Na^+: 0%
[2]; Table VIII, initial 257.74
  ANIONS Cl− Final Concentration: 213.38 mmol/L
